Experimental data from patent publication US4292318A, “Product and method for combating swine dysentery” (priority 1979, dated 1981).
In brackets after ≈: the same amount, converted by molar mass.

Legend:
Treponema hyodysenteriae = assay: In vitro test against Treponema hyodysenteriae (MIC, MBC); format: cell-based; conditions: Brachyspira hyodysenteriae, lowest concentration in a dilution series where growth is inhibited, read-out: minimum inhibitory concentration
Protocol: D was tested in vitro against Treponema hyodysenteriae by a known method. The minimum inhibitory concentration (the lowest concentration of compound in a dilution series where growth is inhibited) was 0.1 mcg/ml. The minimum bactericidal concentration (the lowest concentration of compound in which no viable treponemes are observed upon dilution and subculture from the broth onto blood agar plates) was greater than 0.1 mcg/ml but less than 1 mcg/ml.

[1] = Acute toxicity in female mice; format: in vivo
Protocol: (§1) The compound was tested for acute toxicity by several modes of administration in four species, namely mice, rat, guinea pig, and rabbit. […] The results are given below in Tables 3, 4, 5 and 6.

[2] = Acute toxicity in the rat; format: in vivo; conditions: for Dead/Treated within 21 days / Body weight (m ± SEM) in g. start / Body weight (m ± SEM) in g. Termination: First Experiment; for Body weight (m ± SEM) in g. Termination: Student's t test: t 0.05
Protocol: as §1

[3] = Acute toxicity in the guinea pig by esophageal administration; format: in vivo
Protocol: as §1

[4] = Acute toxicity in the rabbit by esophageal administration; format: in vivo
Protocol: as §1

[5] = Subacute toxicity in the mouse; format: in vivo; conditions: for SGOT / SGPT: 24 hrs. after last dose
Protocol: In view of the favourable acute toxicity data, the compound was administered orally in sub-acute, but relatively large, doses to mice and rats for 15 days. Data were collected on the effects on death rate, weight, liver, and kidneys.

[6] = Subacute toxicity in female rats; format: in vivo, rat; conditions: 2 g/kg/day by gastric lavage for 21 days
[7] = Chronic toxicity in the female mouse; format: in vivo; conditions: for Dead/Treated / Body Weight in g (m ± SE) Start / Body Weight in g (m ± SE) Termination: gastric lavage, 18 weeks; for Fresh Organ-to-Body-Weight Ratio, Heart / Fresh Organ-to-Body-Weight Ratio, Kidneys / Fresh Organ-to-Body-Weight Ratio, Liver / Fresh Organ-to-Body-Weight Ratio, Lungs: m ± SE, 4 animals; for Blood Glucose / SGOT / SGPT: mean of 6 animals, 24 hours after last dose
Description: In view of the favourable sub-acute toxicity, the chronic toxicity in female mice was studied.

[8] = Teratogenetic study, mouse; format: in vivo; conditions: 250 mg/kg/day oral, 3rd to 13th days
Protocol: (§2) In view of the favourable results on chronic toxicity, a teratogenic study was conducted with male and female mice and rats.
a. Animal Species: Mouse, Male and female mice housed together for 10
Oral treatment from 3rd day to 13th days.

Teratogenetic study, rat = format: in vivo; conditions: 250 mg/kg/day oral, same conditions as mouse
Protocol: as §2
b. Animal Species. Rat. Same experimental conditions as with the mouse.

[9] = Acute toxicity by several modes of administration in four species; format: in vivo, and rabbit; conditions: mice, rat, guinea pig, rabbit
Protocol: as §1

[10] = Teratogenic study with male and female mice and rats; format: in vivo
Protocol: as §2

General safety statement = conditions: statement in the description
[11] = test system: five strains of Vibrio cholerae; assay: In vitro effect on five strains of Vibrio cholerae (summary)
[12] = Second Experiment, F, esophageal, 4000 mg/kg
[13] = Second Experiment, F, intraperitoneal, 500 mg/kg
[14] = Second Experiment, M, esophageal, 4000 mg/kg
[15] = Second Experiment, M, intraperitoneal, 500 mg/kg
[16] = 500 mg/kg/day by gastric lavage for 15 days
[17] = in adraganth gum, 1 g/kg/day for 15 days

## CCC(C)c1cnc(CC(C)C)c(=O)n1O [D, D-aspergillic acid]
Treponema hyodysenteriae
  MIC: 0.1 µg/mL (≈ 0.446 µM)
[1]; endoperitoneal, 250 mg/kg
  Dead/Treated Animals after 7 days: 0/18
[1]; endoperitoneal, 500 mg/kg
  Dead/Treated Animals after 7 days: 6/12
[1]; endoperitoneal, 1000 mg/kg, 2 days
  Dead/Treated Animals after 2 days: 6/6
[1]; endoperitoneal, 1000 mg/kg
  Dead/Treated Animals after 7 days: 6/6
[1]; endoperitoneal, 2000 mg/kg, 1 day
  Dead/Treated Animals after 1 day: 6/6
[1]; endoperitoneal, 2000 mg/kg
  Dead/Treated Animals after 7 days: 6/6
[1]; esophageal, 1000 mg/kg
  Dead/Treated Animals after 7 days: 0/12
[1]; esophageal, 2000 mg/kg
  Dead/Treated Animals after 7 days: 0/12
[1]; esophageal, 4000 mg/kg, 4 days
  Dead/Treated Animals after 4 days: 1/12
[1]; esophageal, 4000 mg/kg
  Dead/Treated Animals after 7 days: 1/12
[2]; Cumulative data regardless of sex, esophageal, 4000 mg/kg
  Dead/Treated within 7 days: 0/16
[2]; Cumulative data regardless of sex, intraperitoneal, 500 mg/kg
  Dead/Treated within 7 days: 4/16
[2]; F, endoperitoneal, 500 mg/kg
  Dead/Treated within 21 days: 2/4
  Body weight (m ± SEM) in g. start: 206.2 ± 8.7 g
[2]; F, esophageal, 4000 mg/kg
  Dead/Treated within 21 days: 0/4
  Body weight (m ± SEM) in g. start: 201.2 ± 4.2 g
  Body weight (m ± SEM) in g. Termination: 238.2 ± 12.1 g
[2]; M, endoperitoneal, 500 mg/kg
  Dead/Treated within 21 days: 1/4
  Body weight (m ± SEM) in g. start: 234.0 ± 6.2 g
  Body weight (m ± SEM) in g. Termination: 314.3 ± 10.3 g
[2]; M, esophageal, 4000 mg/kg
  Dead/Treated within 21 days: 0/4
  Body weight (m ± SEM) in g. start: 234.5 ± 13.8 g
  Body weight (m ± SEM) in g. Termination: 288.7 ± 13.8 g
[2]; [12]
  Dead/Treated within 7 days: 0/4
  Body weight (±SE) in g. start: 252.0 ± 16.6 g
  Body weight (±SE) in g. Termination: 253.5 ± 12.1 g
[2]; [13]
  Dead/Treated within 7 days: 0/4
  Body weight (±SE) in g. start: 232.5 ± 5.9 g
  Body weight (±SE) in g. Termination: 218.2 ± 7.0 g
[2]; [14]
  Dead/Treated within 7 days: 0/4
  Body weight (±SE) in g. start: 222.5 ± 6.2 g
  Body weight (±SE) in g. Termination: 231.7 ± 15.7 g
[2]; [15]
  Dead/Treated within 7 days: 2/4
  Body weight (±SE) in g. start: 226.2 ± 6.8 g
[3]; 500 mg/kg
  Dead/Treated within 21 days: 0/4
[3]; 1000 mg/kg
  Dead/Treated within 21 days: 1/4
[3]; 2000 mg/kg
  Dead/Treated within 21 days: 5/6
[3]; 4000 mg/kg
  Dead/Treated within 21 days: 6/6
[4]; 500 mg/kg
  Dead/Treated within 7 days: 0/2
[4]; 500 mg/kg, start
  Body Weight in g. start: 2000 to 2100 g
[4]; 1000 mg/kg
  Dead/Treated within 7 days: 0/4
[4]; 1000 mg/kg, start
  Body Weight (m ± SE) in g. start: 2037 ± 104.3 g
[4]; 1000 mg/kg, termination
  Body Weight (m ± SE) in g. Termination: 1922.5 ± 71.5 g
[4]; 2000 mg/kg
  Dead/Treated within 7 days: 0/2
[4]; 2000 mg/kg, within 4 days
  dead out of treated animals, within 4 days (footnote): two dead out of seven treated animals
[5]; [16]
  % Body Weight Change: -8.1 ± 3.9%
  Dead/Treated: 0/10
  Fresh Organ-to-Body Weight Ratio, Kidneys: 1.5 ± 0.1
  Fresh Organ-to-Body Weight Ratio, Liver: 5.9 ± 0.3
[5]; in H2O, 1 g/kg/day for 15 days
  % Body Weight Change: 18.5 ± 0.75%
  Dead/Treated: 2/12
[5]; [17]
  % Body Weight Change: 16.27 ± 1.31%
  Dead/Treated: 3/12
[5]; in adraganth gum
  SGOT: 132 Units/ml
  SGPT: 10 Units/ml
[5]; in water
  SGOT: 124 Units/ml
  SGPT: 9 Units/ml
[6]; 5 animals, NS
  Average Percent Weight of Fresh Organs, Kidneys: 1.04 ± 0.03%
  Average Percent Weight of Fresh Organs, Liver: 4.54 ± 0.10%
  Average Percent Weight of Fresh Organs, Lung: 1.07 ± 0.09%
[6]; start
  Body Weight in g (m ± SE) Start: 204.1 ± 2.0 g
[6]; termination
  Body Weight in g (m ± SE) Termination: 210.6 ± 9.6 g
[6]; D, death caused by a mistake in esophagus incannulation
  Dead/Treated: 1/6
[7]; 250 mg/kg/day
  Urine Amount excreted by 6 animals in 6 hours: 6.5 mL
  Dead/Treated: 0/10
  Body Weight in g (m ± SE) Start: 27.3 ± 0.5 g
  Body Weight in g (m ± SE) Termination: 26.7 ± 0.7 g
  Fresh Organ-to-Body-Weight Ratio, Heart: 0.60 ± 0.08
  Fresh Organ-to-Body-Weight Ratio, Kidneys: 0.87 ± 0.08
  Fresh Organ-to-Body-Weight Ratio, Liver: 4.57 ± 0.25
  Fresh Organ-to-Body-Weight Ratio, Lungs: 0.731 ± 0.035
  Blood Glucose: 1.10
  SGOT: 118 Units/ml
  SGPT: 5 Units/ml
[7]; 500 mg/kg/day
  Urine Amount excreted by 6 animals in 6 hours: 7 mL
  Dead/Treated: 2/10
  Body Weight in g (m ± SE) Start: 30.4 ± 0.9 g
  Body Weight in g (m ± SE) Termination: 30.0 ± 0.7 g
  Fresh Organ-to-Body-Weight Ratio, Heart: 0.47 ± 0.02
  Fresh Organ-to-Body-Weight Ratio, Kidneys: 1.07 ± 0.04
  Fresh Organ-to-Body-Weight Ratio, Liver: 4.66 ± 0.91
  Fresh Organ-to-Body-Weight Ratio, Lungs: 1.011 ± 0.110
  Blood Glucose: 1.06
  SGOT: 159 Units/ml
  SGPT: 6 Units/ml
[8]
  Body Weight of Foetuses in g (m ± SE): 1.42 ± 0.05 g
  No. of Foetuses with malformations: 0
  No. of living Foetuses per Delivery (m ± SE): 10.3 ± 0.6
  Pregnant/Treated Animals: 3/10
Teratogenetic study, rat
  Body Weight of Foetuses in g (m ± SE): 7.08 ± 0.19 g
  No. of Foetuses with malformations: 0
  No. of living Foetuses per Delivery (m ± SE): 10.8 ± 0.86
  Pregnant/Treated Animals: 7/10
[9]
  acute toxicity: low order of toxicity
[10]
  number of young delivered live at birth: comparable with controls
[10]; either group
  malformations: No malformations
General safety statement
  nitrogenic (so in the source): not nitrogenic
[11]; 10 mcg/ml, after 48 hours
  growth of 3 of the organisms: no growth
[11]; 100 mcg/ml
  growth of the remaining two organisms: only marginal growth
